Consider 14 compounds from patent US20260209193A1, “NOVEL INHIBITORS OF DNA DAMAGE RESPONSES FOR CANCER THERAPY” (The Regents of the University of California, priority 2022, published 2026).

Holding throughout (assay type): cell-based
For test [1], the system named is PC3 and SUM149PT-BRCA1mut cells. As to the kind of experiment: CCK8 cell killing screen of JC099 analogs. The text has this: Structure optimization represents a critical step towards identifying candidate compounds for preclinical and clinical development and contributes to structure-function analysis. […] Cell killing potency was detected by a CCK8 assay in prostate and breast cancer cells. […]
The cell killing potency was detected by a CCK8 assay in prostate and breast cancer cells.

Test [2] concerns the target T1, ATR (Homo sapiens, UniProt Q13535).
T1 construct: endogenous in cells; host or cells: PC3, C4-2B/MR, SUM149PT-BRCA1rev, UWB1.289+BRCA1, MDA-MB-231
Briefly: ATR-mediated signaling: phosphorylation of Rad17 Ser 645 and CHK1 Ser 345 in cells. The conditions noted are these: compared to JC099. The essentials: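 ATR signalling in C4-2B/MR cells, read as phosphorylation of CHK1 Ser 345 and of the ATR substrate Rad17 Ser 645. ATM markers KAP1 Ser 824 and CHK2 Thr 68 were also examined; in vitro kinase work used ATR immunoprecipitated from cell lysate.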

In test [3] the target is T2, PARP1 (Homo sapiens, UniProt P09874).
T2 construct: endogenous in cells; host or cells: PC3
T2 sequence (P09874 whole entry, species assumed): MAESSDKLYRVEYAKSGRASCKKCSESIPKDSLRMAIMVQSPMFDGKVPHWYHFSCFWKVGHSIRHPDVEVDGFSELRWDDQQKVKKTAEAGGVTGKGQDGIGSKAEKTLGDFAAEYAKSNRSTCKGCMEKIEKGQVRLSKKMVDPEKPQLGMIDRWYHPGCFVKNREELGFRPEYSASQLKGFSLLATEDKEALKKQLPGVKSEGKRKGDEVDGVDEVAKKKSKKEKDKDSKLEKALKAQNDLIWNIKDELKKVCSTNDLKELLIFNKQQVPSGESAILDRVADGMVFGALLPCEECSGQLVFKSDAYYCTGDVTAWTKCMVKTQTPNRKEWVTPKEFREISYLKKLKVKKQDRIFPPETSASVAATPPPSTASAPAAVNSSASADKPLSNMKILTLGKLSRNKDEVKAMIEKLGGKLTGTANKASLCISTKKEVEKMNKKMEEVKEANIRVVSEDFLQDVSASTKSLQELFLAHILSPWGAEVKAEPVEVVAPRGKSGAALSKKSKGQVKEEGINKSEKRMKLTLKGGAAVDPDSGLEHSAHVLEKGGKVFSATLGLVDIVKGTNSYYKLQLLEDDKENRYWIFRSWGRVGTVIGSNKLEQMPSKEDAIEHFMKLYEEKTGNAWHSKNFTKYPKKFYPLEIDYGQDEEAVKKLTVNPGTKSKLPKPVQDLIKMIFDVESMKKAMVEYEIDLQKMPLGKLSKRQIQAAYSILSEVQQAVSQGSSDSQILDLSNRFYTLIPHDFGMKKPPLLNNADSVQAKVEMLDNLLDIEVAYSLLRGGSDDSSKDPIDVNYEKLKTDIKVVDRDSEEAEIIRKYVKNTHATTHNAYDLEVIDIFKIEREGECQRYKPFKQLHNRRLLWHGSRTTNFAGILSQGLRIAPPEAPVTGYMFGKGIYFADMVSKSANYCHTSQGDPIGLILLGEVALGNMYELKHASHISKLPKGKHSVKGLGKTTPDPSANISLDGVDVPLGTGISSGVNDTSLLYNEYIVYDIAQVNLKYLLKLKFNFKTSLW
Briefly: PARP1 trapping, chromatin fractionation (chromatin-bound fraction). To be noted: PC3 cells. The essentials:
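PARP1 trapping was measured as PARP1 in the chromatin-bound fraction across six lines: SUM149PT-BRCA1mut/BRCA1rev (breast), UWB1.289 BRCA1-null and BRCA1-restored (ovarian), HR-deficient C4-2B/MR (Rad51 mutant) and HR-proficient PC3 (prostate).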

T1 sequence (Q13535 whole entry): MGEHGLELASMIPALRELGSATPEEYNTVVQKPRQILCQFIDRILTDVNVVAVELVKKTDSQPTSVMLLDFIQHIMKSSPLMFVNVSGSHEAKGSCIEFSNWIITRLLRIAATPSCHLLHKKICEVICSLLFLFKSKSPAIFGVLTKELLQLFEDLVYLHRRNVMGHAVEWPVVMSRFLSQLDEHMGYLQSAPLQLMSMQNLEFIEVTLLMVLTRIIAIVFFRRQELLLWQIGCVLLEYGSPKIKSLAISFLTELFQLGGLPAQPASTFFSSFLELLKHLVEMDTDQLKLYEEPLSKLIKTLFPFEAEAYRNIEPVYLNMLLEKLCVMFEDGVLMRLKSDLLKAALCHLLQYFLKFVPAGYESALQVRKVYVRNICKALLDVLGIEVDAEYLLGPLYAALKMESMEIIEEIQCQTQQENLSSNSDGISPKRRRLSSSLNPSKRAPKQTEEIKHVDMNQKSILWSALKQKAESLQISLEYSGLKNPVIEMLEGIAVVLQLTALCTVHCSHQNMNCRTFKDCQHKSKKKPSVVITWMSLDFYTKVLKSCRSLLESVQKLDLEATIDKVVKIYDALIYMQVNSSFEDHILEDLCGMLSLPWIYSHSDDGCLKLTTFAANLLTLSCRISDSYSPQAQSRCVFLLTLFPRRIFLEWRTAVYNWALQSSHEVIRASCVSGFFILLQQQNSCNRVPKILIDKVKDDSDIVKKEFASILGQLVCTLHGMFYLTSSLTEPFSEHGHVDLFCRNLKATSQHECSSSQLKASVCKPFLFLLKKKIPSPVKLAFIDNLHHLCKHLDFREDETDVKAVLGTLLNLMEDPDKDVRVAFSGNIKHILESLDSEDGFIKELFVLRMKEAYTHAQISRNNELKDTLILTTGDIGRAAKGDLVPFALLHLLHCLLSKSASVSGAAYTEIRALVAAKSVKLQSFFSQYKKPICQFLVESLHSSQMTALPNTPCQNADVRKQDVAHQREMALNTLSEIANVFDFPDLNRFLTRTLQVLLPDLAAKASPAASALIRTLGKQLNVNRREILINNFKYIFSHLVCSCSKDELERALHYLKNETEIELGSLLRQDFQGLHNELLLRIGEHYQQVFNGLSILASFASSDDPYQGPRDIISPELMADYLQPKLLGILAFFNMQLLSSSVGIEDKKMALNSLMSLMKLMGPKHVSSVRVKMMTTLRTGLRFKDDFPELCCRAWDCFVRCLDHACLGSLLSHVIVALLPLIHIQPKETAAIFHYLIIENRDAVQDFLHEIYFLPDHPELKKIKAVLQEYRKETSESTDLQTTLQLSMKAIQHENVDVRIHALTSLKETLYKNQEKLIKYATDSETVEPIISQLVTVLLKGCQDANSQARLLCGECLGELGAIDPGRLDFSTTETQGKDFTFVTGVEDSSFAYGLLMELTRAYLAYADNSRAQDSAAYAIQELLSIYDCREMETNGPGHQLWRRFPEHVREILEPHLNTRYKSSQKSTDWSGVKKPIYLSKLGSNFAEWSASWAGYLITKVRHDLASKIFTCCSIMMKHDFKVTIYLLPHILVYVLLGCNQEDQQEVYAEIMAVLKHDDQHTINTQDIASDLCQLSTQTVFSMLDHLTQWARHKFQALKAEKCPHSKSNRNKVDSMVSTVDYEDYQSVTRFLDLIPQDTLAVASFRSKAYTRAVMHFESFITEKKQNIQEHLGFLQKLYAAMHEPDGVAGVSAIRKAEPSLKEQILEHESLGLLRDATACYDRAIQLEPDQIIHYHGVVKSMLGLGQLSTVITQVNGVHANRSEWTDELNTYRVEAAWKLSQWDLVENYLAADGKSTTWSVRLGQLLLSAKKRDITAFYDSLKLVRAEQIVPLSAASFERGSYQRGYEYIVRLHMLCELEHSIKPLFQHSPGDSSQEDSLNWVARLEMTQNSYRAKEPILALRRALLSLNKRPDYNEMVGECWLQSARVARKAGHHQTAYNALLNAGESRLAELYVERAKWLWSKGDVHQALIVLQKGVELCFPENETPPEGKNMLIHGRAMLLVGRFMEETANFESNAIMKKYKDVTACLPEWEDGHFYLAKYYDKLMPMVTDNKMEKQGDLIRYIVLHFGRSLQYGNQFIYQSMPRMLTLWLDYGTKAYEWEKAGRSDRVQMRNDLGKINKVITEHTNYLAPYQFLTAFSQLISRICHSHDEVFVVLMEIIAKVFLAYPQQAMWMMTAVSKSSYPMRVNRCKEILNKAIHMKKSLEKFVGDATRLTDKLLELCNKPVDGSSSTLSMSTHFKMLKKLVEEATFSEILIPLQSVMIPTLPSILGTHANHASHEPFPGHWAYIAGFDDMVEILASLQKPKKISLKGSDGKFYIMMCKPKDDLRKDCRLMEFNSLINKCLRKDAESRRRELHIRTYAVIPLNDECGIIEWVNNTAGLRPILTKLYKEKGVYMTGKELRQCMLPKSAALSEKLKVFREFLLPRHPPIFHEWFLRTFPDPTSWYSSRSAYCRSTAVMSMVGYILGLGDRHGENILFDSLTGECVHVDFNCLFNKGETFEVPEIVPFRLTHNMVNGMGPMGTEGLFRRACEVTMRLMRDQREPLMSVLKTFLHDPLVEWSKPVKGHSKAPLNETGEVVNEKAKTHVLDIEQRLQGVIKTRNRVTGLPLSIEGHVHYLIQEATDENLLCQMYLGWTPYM
T1 sequence (Q8WXE1 whole entry partner): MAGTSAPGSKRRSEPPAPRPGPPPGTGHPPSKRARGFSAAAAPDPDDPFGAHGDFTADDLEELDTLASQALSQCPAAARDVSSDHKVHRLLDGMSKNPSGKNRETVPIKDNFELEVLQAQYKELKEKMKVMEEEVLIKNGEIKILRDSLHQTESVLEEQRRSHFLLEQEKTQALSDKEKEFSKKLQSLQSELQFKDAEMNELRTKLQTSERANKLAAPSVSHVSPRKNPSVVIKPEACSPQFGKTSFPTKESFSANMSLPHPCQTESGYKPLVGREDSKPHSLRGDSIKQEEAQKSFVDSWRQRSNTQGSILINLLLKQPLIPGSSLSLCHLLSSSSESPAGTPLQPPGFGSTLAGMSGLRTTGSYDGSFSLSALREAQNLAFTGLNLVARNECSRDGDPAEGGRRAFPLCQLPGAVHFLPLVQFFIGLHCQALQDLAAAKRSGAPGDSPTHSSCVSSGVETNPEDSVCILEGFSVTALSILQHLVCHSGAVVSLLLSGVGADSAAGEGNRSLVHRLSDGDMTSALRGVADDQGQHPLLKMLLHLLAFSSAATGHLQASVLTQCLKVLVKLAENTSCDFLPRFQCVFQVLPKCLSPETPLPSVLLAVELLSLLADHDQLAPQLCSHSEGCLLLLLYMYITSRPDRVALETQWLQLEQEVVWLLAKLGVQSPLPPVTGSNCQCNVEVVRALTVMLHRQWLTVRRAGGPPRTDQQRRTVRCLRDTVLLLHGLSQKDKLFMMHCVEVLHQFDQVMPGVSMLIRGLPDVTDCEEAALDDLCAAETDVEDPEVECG

Regarding `CCN(CC)CCOc1ccc(C(=O)NC2C/C(=C\c3cc(F)c(F)cc3F)C(=O)/C(=C/c3cc(F)c(F)cc3F)C2)cc1` (stereo not drawn) [JCS156, 4-(2-(Diethylamino)ethoxy)-N-(4-oxo-3,5-bis((E)-2,4,5-trifluorobenzylidene)cyclohexyl)benzamide], the “cell killing potency relative to JC099” value in test [1] is recorded as “moderate potency of cell killing, whereas less than JC099”. In addition, the “ATR inhibition potency relative to JC099 (OLA- or UV-induced phosphorylation of Rad17 and CHK1)” value (from here on “ATR inhibition potency relative to JC099”) in test [2] was “their potencies were close to JC099”.

Consider `O=C1/C(=C/c2ccc(F)c(F)c2)CC(NC(=O)c2ccc(OCCN3CC4CCCC4C3)cc2)C/C1=C\c1ccc(F)c(F)c1` (stereo not drawn) [JCS138, N-(3,5-Bis((E)-3,4-difluorobenzylidene)-4-oxocyclohexyl)-4-(2-(hexahydrocyclopenta[c]pyrrol-2(1H)-yl)ethoxy)benzamide], for which, in test [1], the “cell killing potency relative to JC099” value is reported as “moderate potency of cell killing, whereas less than JC099”. The “ATR inhibition potency relative to JC099” value in test [2] was “their potencies were close to JC099”. Besides, the “PARP1-trapping potency relative to JC099 (PARP1 in the chromatin-bound fraction)” value in test [3] is on record as “higher potency in PARP1-trapping”.

On to `COCCN(CCOc1ccccc1)CCOc1ccc(C(=O)NC2C/C(=C\c3ccc(F)c(F)c3)C(=O)/C(=C/c3ccc(F)c(F)c3)C2)cc1` (stereo not drawn) [JCS108, N-(3,5-Bis((E)-3,4-difluorobenzylidene)-4-oxocyclohexyl)-4-(2-((2-methoxyethyl)(2-phenoxyethyl)amino)ethoxy)benzamide], for which, in test [1], the “cell killing potency relative to JC099” value is recorded as “higher cell killing potency than JC099”. In addition, the “ATR inhibition potency relative to JC099” value in test [2] is given as “less ATR inhibition potencies”. In addition, the “PARP1-trapping potency relative to JC099 (PARP1 in the chromatin-bound fraction)” value in test [3] was “higher potency in PARP1-trapping”.

In the case of `CCN1CCC[C@H]1CNc1ccc(C(=O)NC2C/C(=C\c3ccc(F)c(F)c3)C(=O)/C(=C/c3ccc(F)c(F)c3)C2)c(C#N)c1` (stereo partly drawn) [JCS139, N-(3,5-Bis((E)-3,4-difluorobenzylidene)-4-oxocyclohexyl)-2-cyano-4-((((S)-1-ethylpyrrolidin-2-yl)methyl)amino)benzamide], in test [1], the “cell killing potency relative to JC099” value was “moderate potency of cell killing, whereas less than JC099”. Besides, the “ATR inhibition potency relative to JC099” value in test [2] is given as “less ATR inhibition potencies”. Further, in test [3], the “PARP1-trapping potency relative to JC099 (PARP1 in the chromatin-bound fraction)” value is on record as “their potencies were less than JC099”.

As to `O=C(CN1CCCC1)Nc1ccc(C(=O)NC2C/C(=C\c3ccc(F)c(F)c3)C(=O)/C(=C/c3ccc(F)c(F)c3)C2)cc1` (stereo not drawn) [JCS046, N-(3,5-bis((E)-3,4-difluorobenzylidene)-4-oxocyclohexyl)-4-(2-(pyrrolidin-1-yl)acetamido)benzamide], the “cell killing potency relative to JC099” value in test [1] is “higher cell killing potency than JC099”. For the same compound, the “PARP1 trapped on DNA lesions” value in test [3] (0.3 μM) is “trapped”.

Turning to `O=C1/C(=C/c2ccc(F)c(F)c2)CC(NC(=O)c2ccc(OCCN3CCC(N4CCCC4)CC3)cc2)C/C1=C\c1ccc(F)c(F)c1` (stereo not drawn) [JCS080, N-(3,5-bis((E)-3,4-difluorobenzylidene)-4-oxocyclohexyl)-4-(2-(4-(pyrrolidin-1-yl)piperidin-1-yl)ethoxy)benzamide], in test [1], the “cell killing potency relative to JC099” value is given as “higher cell killing potency than JC099”. The “ATR inhibition potency relative to JC099” value in test [2] was “greater ATR inhibition potential”.

In the case of `CCN(CC)CCOc1ccc(C(=O)NC2C/C(=C\c3cc(F)c(F)c(OC)c3)C(=O)/C(=C/c3cc(F)c(F)c(OC)c3)C2)cc1` (stereo not drawn) [JCS152, N-(3,5-Bis((E)-3,4-difluoro-5-methoxybenzylidene)-4-oxocyclohexyl)-4-(2-(diethylamino)-ethoxy)benzamide], the “cell killing potency relative to JC099” value in test [1] is recorded as “higher cell killing potency than JC099”. In addition, the “ATR inhibition potency relative to JC099” value in test [2] was “greater ATR inhibition potential”.

Consider `CCN1CCC[C@H]1CNc1ccc(C(=O)NC2C/C(=C\c3cc(F)c(F)cc3F)C(=O)/C(=C/c3cc(F)c(F)cc3F)C2)cc1` (stereo partly drawn) [JCS154, 4-((((S)-1-Ethylpyrrolidin-2-yl)methyl)amino)-N-(4-oxo-3,5-bis((E)-2,4,5-trifluorobenzylidene)-cyclohexyl)benzamide], for which, in test [1], the “cell killing potency relative to JC099” value is “moderate potency of cell killing, whereas less than JC099”. Also, the “ATR inhibition potency relative to JC099” value in test [2] is listed as “their potencies were close to JC099”.

Consider `CCN(CC)CCOc1ccc(C(=O)NC2C/C(=C\c3ccc(F)c(F)c3)C(=O)/C(=C/c3ccc(F)c(F)c3)C2)cc1OC` (stereo not drawn) [JCS111, N-(3,5-Bis((E)-3,4-difluorobenzylidene)-4-oxocyclohexyl)-4-(2-(diethylamino)ethoxy)-3-methoxy-benzamide], for which the “cell killing potency relative to JC099” value in test [1] was “moderate potency of cell killing, whereas less than JC099”. Besides, in test [2], the “ATR inhibition potency relative to JC099” value is given as “their potencies were close to JC099”.

With `COCCN(CCOC)CCOc1ccc(C(=O)NC2C/C(=C\c3cc(F)c(F)c(F)c3)C(=O)/C(=C/c3cc(F)c(F)c(F)c3)C2)cc1` (stereo not drawn) [JCS143, 4-(2-(Bis(2-methoxyethyl)amino)ethoxy)-N-(4-oxo-3,5-bis((E)-3,4,5-trifluorobenzylidene)cyclo-hexyl)benzamide], in test [1], the “cell killing potency relative to JC099” value is recorded as “moderate potency of cell killing, whereas less than JC099”. Besides, the “ATR inhibition potency relative to JC099” value in test [2] is reported as “less ATR inhibition potencies”.

`N#Cc1cc(NCCN2CCCC2)ccc1C(=O)NC1C/C(=C\c2ccc(F)c(F)c2)C(=O)/C(=C/c2ccc(F)c(F)c2)C1` (stereo not drawn) [JCS091, N-(3,5-Bis((E)-3,4-difluorobenzylidene)-4-oxocyclohexyl)-2-cyano-4-((2-(pyrrolidin-1-yl)ethyl)ami-no)benzamide]: the “cell killing potency relative to JC099” value in test [1] is “higher cell killing potency than JC099”. The “PARP1-trapping potency relative to JC099 (PARP1 in the chromatin-bound fraction)” value in test [3] is on record as “higher potency in PARP1-trapping”.

For `CN1CCN(c2ccc(C(=O)NC3C/C(=C\c4ccc(F)c(F)c4)C(=O)/C(=C/c4ccc(F)c(F)c4)C3)cc2)CC1` (stereo not drawn) [JCS071, N-(3,5-Bis((E)-3,4-difluorobenzylidene)-4-oxocyclohexyl)-4-(4-methylpiperazin-1-yl)benzamide], the “cell killing potency relative to JC099” value in test [1] is “higher cell killing potency than JC099”.

On to `COCCN(CCOc1ccc(C(=O)NC2C/C(=C\c3ccc(F)c(F)c3)C(=O)/C(=C/c3ccc(F)c(F)c3)C2)cc1)CC1CCCO1` (stereo not drawn) [JCS110, N-(3,5-Bis((E)-3,4-difluorobenzylidene)-4-oxocyclohexyl)-4-(2-((2-methoxyethyl)((tetrahydrofuran-2-yl)methyl)amino)ethoxy)benzamide], for which the “cell killing potency relative to JC099” value in test [1] is “moderate potency of cell killing, whereas less than JC099”. Also, the “ATR inhibition potency relative to JC099” value in test [2] was “greater ATR inhibition potential”.

Regarding `CCN1CCC[C@H]1CNc1ccc(C(=O)NC2C/C(=C\c3cc(F)c(F)c(F)c3)C(=O)/C(=C/c3cc(F)c(F)c(F)c3)C2)cc1` (stereo partly drawn) [JCS142, 4-((((S)-1-Ethylpyrrolidin-2-yl)methyl)amino)-N-(4-oxo-3,5-bis((E)-3,4,5-trifluorobenzylidene)-cyclohexyl)benzamide], the “cell killing potency relative to JC099” value in test [1] is recorded as “higher cell killing potency than JC099”. Besides, in test [2], the “ATR inhibition potency relative to JC099” value is given as “greater ATR inhibition potential”.
